According to patent US20080241211A1, “DEVICE WHICH ENHANCES THE BIOLOGICAL ACTIVITY OF LOCALLY APPLIED GROWTH FACTORS WITH PARTICULAR EMPHASIS ON THOSE USED FOR BONE REPAIR” (University of Southern California, priority 2007, published 2008):
Entries after “also recorded” stand apart in the source; their conditions may differ.

Assays:
estrogen receptor = experiment: Naringin enhancement of BMP-2 effect with estrogen receptor antagonist ICI182,780 in C2C12; format: cell-based; settings: FIG. 5
Protocol: Intracellular distribution of the estrogen receptor in skeletal myoblasts (C2C12) was determined by immuno-fluorescent staining (Milanesi, L., et al., J Cell Biochem, 2008). Naringin bind to estrogen receptor. Inhibition of estrogen receptor abrogate naringin effect. […] However, the mechanism by which naringin exerts its effects is still unclear. From our prelimianry study, there is evidence that naringin acts via estrogen-receptor (ER)-mediated signaling. Cells were cultured with naringin, in combination with 7α,17β-[9[(4,4,5,5,5-pentafluoropentyl)sulfinyl]nonyl] estra-1,3,5(10)-triene-3,17-diol (ICI182,780), a non-specific ERα and ERβ antagonist.

osteoblasts = settings: cited from earlier work
MG-63 human osteoblasts = settings: via activation of the estrogen receptor; cited from earlier work
[1] = tested on: Rat bone marrow derived stem cells; experiment: MTT cell proliferation assay; format: cell-based; settings: 48 h, FIG. 6
Excerpt: MTT was used for cell proliferation assay. MTT [3-(4,5-dimethylthiazol-2-yl)-2,5-diphenyltetrazolium bromide] assay is based on the ability of a mitochondrial dehydrogenase enzyme from viable cells to cleave the tetrazolium rings of the pale yellow MTT and form a dark blue formazan crystals which is largely impermeable to cell membranes, thus resulting in its accumulation within healthy cells. Rat bone marrow derived stem cells were selected by pro-plating methods. Cells used in this study were from passages 3-4. 1×10^7 viable cells/mL in culture media containing 10% FCS were dispensed 100 μL per well in 96 well flat bottomed tissue culture plates. Cells were allow to grow with and without naringin and incubated plates in a humidified CO2 incubator at 37° C. for 48 h. 10 μL of MTT solution were added to all wells of 48 h cultured stem cells and incubate for 4 h at 37° C. After washing cells 3 times with PBS, dark blue dye in cells were dissolved with DMSO. After a few minutes at room temperature read plates using a plate reader in dual wavelength measuring system, at 540 nm and a reference wavelength of 630 nm.
Dose dependent of naringin on bone marrow stem cell proliferation was studied. Cell number was assayed by MTT method. […] (see FIG. 6).

[2] = Collagen sponge implants, subcutaneous or intramuscular bone induction in rats; format: in vivo, rat
Protocol: Collagen sponge was either blended with naringin solution or covalently crosslinked naringin to collagen sponges. Different doses of BMP-2 were added to the matrices before implantation. Samples were placed intramuscular in thigh muscle. Ten Fisher 344 rats with 180 g in weight were used in this study. Implants were be retrieved 28 days postoperatively. Explants were dissected free of muscle flaps and cut into halves. One half of each explant was used for alkaline phosphatase assay.
Based on these surprising discoveries, the inventors concluded that specific growth factors are needed in addition to naringin for bone to form (FIG. 3).
It will be recognized by one skilled in the art that osteoinductive enhancers are particularly useful in situations where fracture healing is compromised, such as in older people where biosynthetic abilities may be declining, or in situations where not sufficient bone is available for repair. It will also be understood by one of ordinary skill in the art that the addition of growth factors (natural or synthetic) to the naringin containing preparation is essential for osteoinduction.

[3] = DBM with naringin in abdominal muscle pouches of nude rats, ectopic bone formation; format: in vivo; settings: optimized dose of naringin
Protocol: Osteoinductive (OI) activity of human DBM obtained from Tissue Bank with particle size of 210-750 micrometers was tested in vitro with cell culture methods (Han, 2003). DBM were grouped according their OI score.
Two doses of naringin were used to treat DBM particles before implantation. In 50 mg of DBM, 50 micro liter of 100 micromolar or […] of naringin/PBS solution was added into DBM before implantation.
Muscle pouches were created in abdominal muscles bilaterally in nude rats (weighing 120-150 g each) at 6 sites by sharp and blunt dissection. Subsequently, fifty milligrams of three groups of DBM, two doses of naringin/PBS and with PBS alone, were packed into pouches and closed with a single absorbable suture. Implants were retrieved 28 days postoperatively. The recti abdomini muscles were excised as single muscle flaps and placed in cold PBS moisturized paper towels for radiography. Explants were dissected free of muscle flaps and cut into halves. One half of each explant were used for alkaline phosphatase assay and the other half were fixed in 10% neutral buffered formalin solution for 24 hours and decalcified with a decalcifying solution (Stephens Scientific, Riverdale, N.J.) for 48 hours. The decalcified explants were paraffin-embedded and sectioned with a […] microtome. […]

[4] = tested on: Pre-myoblast cell line C2C12; experiment: BMP-2 induced ALP activity in C2C12 cell culture; format: cell-based
Protocol: C2C12 was plated in 96-well culture plate with density of 12.5K/well in 10% FBS/DMEM for 5 hours attachment. […] Cells were incubated at 37° C. for another 48 hours. Cell membrane associated ALP activity was tested by standard ALP assay.
C2C12 was plated in 96-well culture plate with density of 12.5K/well in 10% FBS/DMEM for 5 hours attachment. Medium was changed into 1% testing medium. Forty nano-gram of rhBMP-2 in 10 μl was added in every well and 1-1600 nM of naringin was added 10 minutes later.

C[C@]12CC[C@@H]3c4ccc(O)cc4C[C@@H](CCCCCCCCC[S+]([O-])CCCC(F)(F)C(F)(F)F)[C@H]3[C@@H]1CC[C@@H]2O (stereo partly drawn) [ICI, 7α,17β-[9[(4,4,5,5,5-pentafluoropentyl)sulfinyl]nonyl] estra-1,3,5(10)-triene-3,17-diol]
effect of estrogen receptor antagonist on naringin enhancing BMP-2 effect (estrogen receptor): partially block naringin enhancing BMP-2 effect

O=c1c(-c2ccc(O)cc2)coc2cc(O)ccc12 [daidzein]
increase of viability of osteoblasts (osteoblasts; daidzein 2-50 microM, P<0.05): about 1.4 fold
increase of alkaline phosphatase activity of osteoblasts (osteoblasts; daidzein 2-100 microM, P<0.05): about 1.4 fold
increase of osteocalcin synthesis of osteoblasts (osteoblasts; daidzein 2-100 microM, P<0.05): ~2.0 fold
BMP2 mRNA increase (osteoblasts; osteoblasts): 5.0 fold
BMP2 protein increase (osteoblasts; osteoblasts): 7.0 fold

O=c1c(O)c(-c2ccc(O)cc2)oc2cc(O)cc(O)c12 [kaempferol]
alkaline phosphatase activity in MG-63 human osteoblasts (MG-63 human osteoblasts): induced an increase in alkaline phosphatase activity

C[C@@H]1O[C@@H](O[C@H]2[C@H](Oc3cc(O)c4c(c3)O[C@H](c3ccc(O)cc3)CC4=O)O[C@H](CO)[C@@H](O)[C@@H]2O)[C@H](O)[C@H](O)[C@H]1O [naringin]
bone marrow stem cell proliferation (MTT) [1]: inhibits rat bone marrow cell proliferation
new bone induction ([2]; collagen sponges with naringin plus growth factors (BMP2 and/or BMP7), subcutaneous or intramuscular model): did induce bone
new bone induction ([2]; naringin alone with collagen carrier, no growth factors, rats): do not induce new bone; also recorded: not sufficient to induce bone; also recorded: no bone was formed; also recorded: no effect
DBM activity in regard of ectopic bone formation potential [3]: significantly increased
naringin concentration with maximal enhancing ALP effect ([4]; 40 ng rhBMP-2 per well, 1-1600 nM naringin added 10 minutes later, FIG. 4): 800 nM
increase of BMP-2 activity by naringin ([4]; BMP-2 plus naringin versus BMP-2 alone, FIG. 3): four-fold
BMP-2 activity in the ALP assay when naringin is added ([4]; BMP-2 plus naringin, FIG. 3): 0.4
induction of differentiation in osteoprogenitor cells by alkaline phosphatase activity ([4]; C2C12, preliminary results): significant induction of differentiation
effect of naringin on BMP-2 induced ALP activity ([4]; naringin added to BMP-2, C2C12, FIG. 3): increases the upregulation of alkaline phosphatase activity by BMP-2; also recorded: dose dependently increase BMP-2 induced ALP activity
effect of naringin by itself on ALP activity / osteoinductivity ([4]; naringin alone, no BMP-2, C2C12, 48 hours): not enough for osteogenic induction; also recorded: no effect on ALP activity; also recorded: no osteoinductivity at all

O=c1c(O)c(-c2ccc(O)c(O)c2)oc2cc(O)cc(O)c12 [quercetin]
alkaline phosphatase activity in MG-63 human osteoblasts (MG-63 human osteoblasts): induced an increase in alkaline phosphatase activity
